Target: Amyloid-beta precursor protein (Homo sapiens) (UniProt P05067)
Experiment: Inhibition of self-mediated aggregation of amyloid beta (1 to 42 residues) (unknown origin) at 10 uM by Thioflavin T based assay relative to control

Amyloid-beta precursor protein (Homo sapiens), sequence (P05067 whole entry, the tested form may be a part): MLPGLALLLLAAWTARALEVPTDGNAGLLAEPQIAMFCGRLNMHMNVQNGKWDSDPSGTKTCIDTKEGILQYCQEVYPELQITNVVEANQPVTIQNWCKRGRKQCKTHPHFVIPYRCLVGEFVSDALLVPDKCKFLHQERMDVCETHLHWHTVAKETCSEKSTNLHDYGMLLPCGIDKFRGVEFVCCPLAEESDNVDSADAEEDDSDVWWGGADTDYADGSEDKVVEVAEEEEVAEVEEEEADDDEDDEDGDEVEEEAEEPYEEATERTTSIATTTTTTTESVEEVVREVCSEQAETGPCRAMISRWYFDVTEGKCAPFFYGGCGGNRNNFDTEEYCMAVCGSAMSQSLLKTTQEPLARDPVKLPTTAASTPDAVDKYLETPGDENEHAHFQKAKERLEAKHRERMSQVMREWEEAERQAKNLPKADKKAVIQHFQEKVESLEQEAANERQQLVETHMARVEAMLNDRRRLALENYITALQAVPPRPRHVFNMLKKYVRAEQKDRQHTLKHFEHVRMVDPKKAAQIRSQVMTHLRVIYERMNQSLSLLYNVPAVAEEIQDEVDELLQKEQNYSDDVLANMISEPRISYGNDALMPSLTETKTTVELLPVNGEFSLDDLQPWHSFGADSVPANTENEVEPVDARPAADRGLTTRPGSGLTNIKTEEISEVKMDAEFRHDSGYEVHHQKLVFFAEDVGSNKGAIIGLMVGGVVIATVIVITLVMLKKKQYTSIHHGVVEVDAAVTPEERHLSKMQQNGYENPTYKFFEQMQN

Compound: COc1cc(/C=C/C(=O)Nc2ccc(-c3ccc(NC(=O)/C=C/c4ccc(O)c(OC)c4)cc3)cc2)ccc1O
- inhibition: 83.7%

— ChEMBL document CHEMBL4184203, “A review on the hybrids of hydroxycinnamic acid as multi-target-directed ligands against Alzheimer's disease” (Bioorg Med Chem, 2018)
